According to EP1100821B1, “ANTI-INFLAMMATORY COMPOUNDS DERIVED FROM LIPOCORTIN-1” (priority 1998, dated 2006):
No end group written: not given here.

Legend:
PMN migration = type: in vivo; conditions: peptide s.c. 30 min prior to 1 mg zymosan into 6-day-old air-pouches; PMN counted 4 h after zymosan; n=15; P<0.01
Procedure: Male Swiss Albino mice (20-22 g body weight) were purchased from Interfauna (CFLP strain; Huntingdon, Cambridgeshire, UK) and maintained on a standard chow pellet diet with tap water ad libitum. Animals were used at least one week after arrival.
Air-pouches were formed on the back of the mice by subcutaneous (s.c.) injection of 2.5 ml of air on day 2 and day 5. Three days after the last air-injection (6-day-old air-pouches) 1 mg of zymosan (in 0.5 ml of sterile saline) was injected locally (Perretti et al., 1996). Zymosan was previously boiled for 30 min in phosphate buffered solution (PBS), extensively washed in the same medium and stored at -20°C prior to use.
Four hours after the local injection of zymosan, mice were killed by CO2 exposure and the air-pouches washed with 2 ml of PBS containing ethylenediaminetetracetic acid sodium salt (EDTA; 3 mM) and heparin (25 U/ml). […] The number of PMN was determined, using a Neubauer haematocytometer, after staining (1:10 dilution) with Turk's solution (crystal violet 0.01 % w/v in acetic acid 3% v/v).
Control mice were treated with sterile PBS (100 µl s.c.).

A549 cell line = conditions: in vitro A549 model; previous publications (Croxtall et al., 1993, 1998); cited from earlier work

Substance	Approximate ED50s (inhibition of PMN migration) (PMN migration)	inhibitory effect on A549 cell function (A549 cell line)
Ac-AMVSEFLKQAW [LC12-12, Ac-AMVSEFLKQAW]	~110 nmol	
EQEYVQTV [LC118-25]		significant inhibitory activity
LC11-12: lipocortin 1 N-terminal fragment, residues 1-12, from previous publications (MAMVSEFLKQAW; UniProt P04083 1-12, looked up, fragment)		inactive
